{"source": "paper PMC10636063", "about": "“Progesterone activation of β1-containing BK channels involves two binding sites” (Nature Communications, 2023)", "key": {"[1]": {"system": "BK β4 subunit (KCNMB4 product)", "assay": "Thermal unfolding (MST) of purified wt β4", "format": "binding", "set-up": "delta (Δ) of onset to inflection point: unit not given here", "excerpt": "BK channel-forming slo1 cDNA (cbv1 isoform; AY330293) was cloned from rat cerebral artery SM cells, and inserted into pcDNA3.1 vector as described. BK β1 cDNA (KCNMB1 product; NP_011452; FJ154955) were isolated from rat cerebral artery SM cells and cloned as described. β4 cDNA (KCNMB4; NP_055320; AY028605) were generously provided by Dr. Ligia Toro. CHO cells were transiently transfected with cbv1 ± β1-, or β4-carrying pcDNA3.1 using X-tremeGENE HP (Sigma-Aldrich). Mutations to β1/4 cDNAs were conducted by Genscript, with sequences being confirmed to be >99% identical to KCNMB1 product; NP_011452 or β4 KCNMB4; NP_055320; respectively. β1/4 and mutant constructs were flag-tagged (DYKDDDDK-tag) by Genscript services for subsequent immunoprecipitation and use in microscale thermophoresis studies.\nWt β1, wt β4 and mutant constructs were purified by immunoprecipitation using Dynabeads Protein G Kit (10007D by Invitrogen) and following the manufacturer’s instructions. […] The unfolding profile of a protein is a plot of its fluorescence signal against temperature. […] During the heating process, fluorescence is recorded at 330 and 350 nm. The resulting fluorescence ratio change is then analyzed for onset and inflection points. The temperature of onset and inflection is determined using built-in analysis function in Nanotemper PR.therm-control software. […]"}, "[2]": {"target": "T1, smooth muscle myocyte BK channels (KCNMB1-/-) (Mus musculus, UniProt Q08460)", "T1 construct": "endogenous in cells; host or cells: freshly isolated middle cerebral artery smooth muscle cells of KCNMB1-/- mice, inside-out patches", "T1 sequence (Q08460 whole entry)": "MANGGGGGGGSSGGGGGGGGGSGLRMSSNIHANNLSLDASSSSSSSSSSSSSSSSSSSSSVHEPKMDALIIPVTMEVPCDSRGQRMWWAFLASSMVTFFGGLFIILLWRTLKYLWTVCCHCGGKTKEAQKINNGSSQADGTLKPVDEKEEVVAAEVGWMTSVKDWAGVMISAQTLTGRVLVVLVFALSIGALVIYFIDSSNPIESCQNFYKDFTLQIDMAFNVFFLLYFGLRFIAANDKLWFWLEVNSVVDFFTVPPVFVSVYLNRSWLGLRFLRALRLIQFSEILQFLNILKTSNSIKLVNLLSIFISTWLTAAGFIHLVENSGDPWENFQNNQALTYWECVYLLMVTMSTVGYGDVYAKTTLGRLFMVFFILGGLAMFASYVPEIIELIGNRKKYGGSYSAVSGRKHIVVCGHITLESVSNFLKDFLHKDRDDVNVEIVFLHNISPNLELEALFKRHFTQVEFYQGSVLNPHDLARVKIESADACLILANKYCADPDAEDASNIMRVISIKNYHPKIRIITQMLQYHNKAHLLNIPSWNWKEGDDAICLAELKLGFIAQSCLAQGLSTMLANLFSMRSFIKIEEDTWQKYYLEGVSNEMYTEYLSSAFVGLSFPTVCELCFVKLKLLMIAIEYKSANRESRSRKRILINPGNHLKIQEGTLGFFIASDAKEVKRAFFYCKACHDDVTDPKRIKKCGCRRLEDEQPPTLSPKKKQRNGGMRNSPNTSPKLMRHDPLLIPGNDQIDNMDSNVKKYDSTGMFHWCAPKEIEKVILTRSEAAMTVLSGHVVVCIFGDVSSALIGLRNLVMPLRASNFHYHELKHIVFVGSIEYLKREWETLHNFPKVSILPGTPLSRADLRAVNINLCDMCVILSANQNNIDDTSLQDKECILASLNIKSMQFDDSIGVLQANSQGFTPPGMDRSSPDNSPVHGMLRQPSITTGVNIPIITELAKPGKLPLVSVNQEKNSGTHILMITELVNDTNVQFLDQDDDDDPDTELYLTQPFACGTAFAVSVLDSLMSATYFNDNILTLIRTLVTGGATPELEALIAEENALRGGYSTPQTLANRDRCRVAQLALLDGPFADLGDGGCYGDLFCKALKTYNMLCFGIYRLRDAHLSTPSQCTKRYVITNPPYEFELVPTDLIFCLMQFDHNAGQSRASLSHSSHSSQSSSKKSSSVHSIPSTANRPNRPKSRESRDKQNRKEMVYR", "assay": "Inside-out patch-clamp of MCA smooth muscle myocytes, KCNMB1-/- mice", "format": "cell-based", "conditions": "for normalized NPo, time course Fig 5C: beta1KO, PROG 10uM", "experimental": "Ionic currents were recorded from excised, inside-out (I/O) patches. […] In all experiments, free [Ca^2+] in solution was adjusted to the desired value by adding the appropriate amount of Ca^2+ from a 1 mM CaCl2 stock. An agar bridge with Cl^- as main anion was used as ground electrode. Solutions were applied onto the cytosolic side of I/O patches using an automated, pressurized system (Octaflow; […] Ionic currents at single channel resolution were recorded using an EPC8 amplifier (HEKA) at 1 kHz. Data were digitized at 5 kHz using a Digidata […] A/D converter and pCLAMP 8.0 (Molecular Devices); n = 5/group. […] Drug-induced NPo changes were determined by comparing baseline NPo (i.e., NPo with the patch/cell perfused with bath solution) to the NPo from the same patch/cell exposed to the agent under study (DMSO/PROG/oxime) dissolved in bath solution."}}, "note": "Where “and” joins values, the source holds several entries; their conditions need not be identical. Equal values may be shown once."}
{"compound": "CC(=O)[C@H]1CC[C@H]2[C@@H]3CCC4=CC(=O)CC[C@]4(C)[C@H]3CC[C@]12C", "note": "[PROG, Progesterone]", "values": [{"measurement": "delta (Δ) of onset to inflection point", "setting": "[1]; 10 μM PROG, individual records (Fig 1C)", "result": "24.8 and 1.81 and 4.188 and 7.2 and 3.495 and 5.4"}, {"measurement": "effect on thermal unfolding / binding", "setting": "[1]; 4–10 μM", "result": "exerted a similar effect on the thermal unfolding of β4"}, {"measurement": "action on BK channel activity", "setting": "[2]; 10 µM, I/O patches, 30 μM free Ca2+", "result": "consistently resistant to PROG"}, {"measurement": "normalized NPo, scatter Fig 5D", "setting": "[2]; KO, PROG, single cells (same values as 5C time 13)", "result": "1.285 and 0.9695 and 0.9053 and 0.9515 and 1.0301"}, {"measurement": "normalized NPo, time course Fig 5C", "setting": "[2]; time 1 (normalisation reference), columns = cell number", "result": 1}, {"measurement": "normalized NPo, time course Fig 5C", "setting": "[2]; time 2", "result": "0.9681 and 1.062 and 1.027 and 1.211 and 0.9954"}, {"measurement": "normalized NPo, time course Fig 5C", "setting": "[2]; time 3", "result": "0.9157 and 1.074 and 1.107 and 1.076 and 1.008"}, {"measurement": "normalized NPo, time course Fig 5C", "setting": "[2]; time 4", "result": "1.013 and 0.9333 and 1.023 and 1.02 and 0.9985"}, {"measurement": "normalized NPo, time course Fig 5C", "setting": "[2]; time 5", "result": "0.8445 and 0.9395 and 0.9666 and 0.9766 and 1.044"}, {"measurement": "normalized NPo, time course Fig 5C", "setting": "[2]; time 6", "result": "1.335 and 0.9407 and 1.013 and 1.133 and 0.9069"}, {"measurement": "normalized NPo, time course Fig 5C", "setting": "[2]; time 7", "result": "1.401 and 0.9722 and 0.9298 and 1.141 and 1.008"}, {"measurement": "normalized NPo, time course Fig 5C", "setting": "[2]; time 8", "result": "0.9307 and 0.9753 and 1 and 1.059 and 0.9374"}, {"measurement": "normalized NPo, time course Fig 5C", "setting": "[2]; time 9", "result": "0.8843 and 0.9534 and 0.8763 and 1.168 and 1.029"}, {"measurement": "normalized NPo, time course Fig 5C", "setting": "[2]; time 10", "result": "0.9107 and 1 and 0.9833 and 1.22 and 0.9731"}, {"measurement": "normalized NPo, time course Fig 5C", "setting": "[2]; time 11", "result": "0.9343 and 1.019 and 1.187 and 1.237 and 0.9145"}, {"measurement": "normalized NPo, time course Fig 5C", "setting": "[2]; time 13", "result": "0.9053 and 0.9515 and 1.0301 and 1.285 and 0.9695"}, {"measurement": "normalized NPo, time course Fig 5C", "setting": "[2]; time 14", "result": "0.872 and 0.9873 and 0.9766 and 1.12 and 1.0626"}, {"measurement": "normalized NPo, time course Fig 5C", "setting": "[2]; time 15", "result": "0.8834 and 0.9392 and 0.9933 and 1.107 and 1.032"}, {"measurement": "normalized NPo, time course Fig 5C", "setting": "[2]; time 16", "result": "0.8292 and 1.033 and 0.8763 and 1.072 and 0.8061"}, {"measurement": "normalized NPo, time course Fig 5C", "setting": "[2]; time 17", "result": "0.881 and 1.326 and 0.8485 and 1.237 and 0.7481"}, {"measurement": "normalized NPo, time course Fig 5C", "setting": "[2]; time 18", "result": "0.8971 and 1.152 and 0.7759 and 1.189 and 1.06"}, {"measurement": "normalized NPo, time course Fig 5C", "setting": "[2]; time 19", "result": "0.8576 and 1.179 and 0.7388 and 1.176 and 0.8214"}, {"measurement": "normalized NPo, time course Fig 5C", "setting": "[2]; time 20", "result": "0.8348 and 0.9401 and 0.8127 and 1.189 and 0.8275"}, {"measurement": "normalized NPo, time course Fig 5C", "setting": "[2]; time 21", "result": "0.9702 and 1.112 and 0.8729 and 1.098 and 1.041"}, {"measurement": "normalized NPo, time course Fig 5C", "setting": "[2]; time 22", "result": "0.9222 and 1.09 and 0.9773 and 1.02"}]}
